B1: rhtA: chemical exporter from E. coli characterized for homoserine transport; mutant version rhtA(P2S) overexpressed (protein)
chain: MSGSLRKMPVWLPIVILLVAMASIQGGASLAKSLFPLVGAPGVTALRLALGTLILIAFFKPWRLRFAKEQRLPLLFYGVSLGGMNYLFYLSIQTVPLGIAVALEFTGPLAVALFSSRRPVDFVWVVLAVLGLWFLLPLGQDVSHVDLTGCALALGAGACWAIYILSGQRAGAEHGPATVAIGSLIAALIFVPIGALQAGEALWHWSVIPLGLAVAILSTALPYSLEMIALTRLPTRTFGTLMSMEPALAAVSGMIFLGETLTPIQLLALGAIIAASMGSTLTVRKESKIKELDIN

Tests used:
E. coli strains = experiment: Growth inhibition of E. coli strains grown in the presence of 3-HP; format: cell-based; settings: levels as low as
E. coli ACCase = E. coli ACCase (Escherichia coli, UniProt P0A9Q5+P0ABD5+P0ABD8+P24182); settings: FIG. 4; for decrease of the activity of the ACCase enzyme relative to control: salts of 3-HP levels near 0.66M; for decrease of the activity of the ACCase enzyme: salt levels near 0.44M
Method: Levels of greater than 0.66M (60 g/L) are expected to be present for commercially viable commercial production of 3-HP.
Each gene was amplified by PCRs with Pfu Ultra II HS using the manufacturer's instructions, and the PCR products were purified using the Zymo PCR Cleanup kit. Concentrations of products were measured using the Nanodrop spectophotometer. The Gibson Assembly kit (NEB) was used to construct plasmids expressing the ACCase subunit genes as directed by the manufacturer. The effect of NH4-3-HP and NH4Cl on H. elongata ACCase was tested and compared to the E. coli ACCase.

H. elongata ACCase = experiment: Salt inhibition of ACCase enzyme activity (H. elongata ACCase); format: biochemical, Halomonas elongata; settings: FIG. 4
Method: Concentrations of products were measured using the Nanodrop spectophotometer.

3-HP production = experiment: 1 L fermentation, 3HP titer with overexpression of rhtA exporter; format: cell-based, E. coli; settings: control plasmid without rhtA, FIG. 7
Method: A known chemical exporter from E. coli that has been previously characterized for homoserine transport, rhtA, was evaluated for increased production of 3-HP. A mutant version of the exporter, rhtA(P2S) (SEQ ID NO. 30 nucleic acid, SEQ ID NO. 31 protein) was synthesized behind the PtpiA promoter and inserted into the pTRC-PyibD-MCR plasmid behind a terminator using the Gibson Assembly kit (NEB) according to manufacturer's instructions. The effects of overexpression of rhtA were evaluated in 1 L fermentation compared to the control plasmid without rhtA. […] Construction of plasmids expressing another putative transporter, ydcO (SEQ ID NO. 32 nucleic acid, SEQ ID NO. 33 protein) is carried out in the same manner.

E. coli ACCase, sequence (P0A9Q5 whole entry): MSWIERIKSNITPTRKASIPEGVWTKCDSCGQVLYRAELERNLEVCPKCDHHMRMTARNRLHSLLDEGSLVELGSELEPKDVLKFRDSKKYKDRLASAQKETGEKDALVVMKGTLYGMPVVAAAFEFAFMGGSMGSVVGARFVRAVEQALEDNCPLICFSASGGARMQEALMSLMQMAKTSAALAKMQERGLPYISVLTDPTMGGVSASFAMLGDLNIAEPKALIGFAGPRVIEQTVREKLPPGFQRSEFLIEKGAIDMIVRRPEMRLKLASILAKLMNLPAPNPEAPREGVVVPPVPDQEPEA
E. coli ACCase, sequence (P0ABD5 whole entry): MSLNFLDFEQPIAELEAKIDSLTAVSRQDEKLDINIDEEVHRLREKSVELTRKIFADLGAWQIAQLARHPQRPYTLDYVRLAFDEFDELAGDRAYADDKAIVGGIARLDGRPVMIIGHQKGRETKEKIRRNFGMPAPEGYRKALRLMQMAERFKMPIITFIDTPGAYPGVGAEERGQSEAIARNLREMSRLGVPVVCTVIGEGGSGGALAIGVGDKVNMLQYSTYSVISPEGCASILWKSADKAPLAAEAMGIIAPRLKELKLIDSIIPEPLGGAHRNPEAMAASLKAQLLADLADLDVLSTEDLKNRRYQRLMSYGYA

| Molecule | effect of salt on E. coli ACCase (E. coli ACCase) | decrease of the activity of the ACCase enzyme relative to control (E. coli ACCase) | effect of salt on H. elongata ACCase compared to the E. coli ACCase (H. elongata ACCase) | decrease of the activity of the ACCase enzyme (E. coli ACCase) | other results |
| --- | --- | --- | --- | --- | --- |
| O=C(O)CCO [3-HP, 3-hydroxypropionic acid] |  |  |  |  | 3-HP level at which growth inhibition is demonstrated (E. coli strains): 20 g/L |
| N.O=C(O)CCO [NH4-3-HP] | significantly inhibited | approximately 80% | less affected |  |  |
| Cl.N [NH4Cl] | significantly inhibited |  | less affected | approximately 80% |  |
| O=C([O-])CCO.[Na+] [Na-3-HP] |  | approximately 80% |  |  |  |
| [Cl-].[Na+] [NaCl] |  |  |  | approximately 80% |  |
| B1 |  |  |  |  | 3HP titer compared to the control production strain (3-HP production): significant improvement |
